Like-named read-outs stand apart in the source and are kept apart here. Where a SMILES comes first, the peptide text is derived from it. Bridges are numbered along the chain shown (N, C = ends). [ ]: non-standard residue; d: D form. Cha = N[C@@H](CC1CCCCC1)C(=O)O; Dab = NCC[C@H](N)C(=O)O
Tests used:
[1] = tested on: Escherichia coli ATCC 25922; type: cell-based; settings: ATCC 25922
Experimental: (§5) The minimum inhibitory concentration (MIC) of paenipeptin analogues was determined using the broth microdilution method (Wirker, M. A. Methods for Dilution Antimicrobial Susceptibility Tests for Bacteria that Grow Aerobically: Approved Standard M07-A8; Clinical and Laboratory Standards Institute, Wayne, Pa., 2009). Seven reference strains (Acinetobacter baumannii ATCC 19606, Escherichia coli ATCC 25922, Klebsiella pneumoniae ATCC 13883, Pseudomonas aeruginosa ATCC 27853, Enterococcus faecium ATCC 19434, Staphylococcus aureus ATCC 29213 and methicillin-resistant S. aureus ATCC 43300) were subjected to MIC testing.
(§6) Paenipeptin analogues were two-fold diluted in tryptic soy broth (TSB; Becton Dickinson) and mixed with an equal volume of bacterial suspensions in TSB containing approximately 1.5×10^5 colony-forming units (CFU)/mL in a clear UV-sterilized 96-well microtiter plate (NBS, Corning Inc., Corning, N.Y.). […] The microtiter plate was incubated at 37° C. for 18-20 h.

[2] = tested on: methicillin-resistant S. aureus strain LAC biofilm; assay: Established catheter-associated biofilm in vitro; type: cell-based, Staphylococcus aureus; settings: for reduction of viable biofilm-associated cells: 72 h
Experimental: (§1) Each well was inoculated with the methicillin-resistant S. aureus strain LAC or P. aeruginosa ATCC 27853 to an OD600nm of 0.05. […] After 72 h of exposure, catheters were rinsed with PBS, followed by sonication (for S. aureus) or vigorous vortexing (for P. aeruginosa) to quantitatively recover adherent bacteria. Viable S. aureus or P. aeruginosa cells were enumerated by plating serial dilutions on TSA.

[3] = tested on: P. aeruginosa ATCC 27853 biofilm; assay: Established catheter-associated biofilm in vitro; type: cell-based, Pseudomonas aeruginosa; settings: 40× MIC (40 μg/ml)
Experimental: as §1

[4] = tested on: S. aureus ATCC 29213; assay: Impact of purified LTA on bactericidal activity; type: cell-based, Staphylococcus aureus; settings: analogue at 32 μg/mL, 60 min
[5] = tested on: P. aeruginosa ATCC 27853; assay: Impact of purified LPS on bactericidal activity; type: cell-based, Pseudomonas aeruginosa; settings: LPS 100 μg/ml; analogue at 16 μg/mL; 60 min
Experimental: For studies with LPS, P. aeruginosa ATCC 27853 was diluted with TSB to contain approximately 10^6 CFU/mL. […] The mixtures were incubated at 37° C. with agitation at 200 rpm for 60 min. Surviving cells were quantified by plating on TSA. There were three independent experiments with one replicate in each experiment. […] There were four independent experiments with one replicate in each experiment.

[6] = tested on: Acinetobacter baumannii ATCC 19606; type: cell-based; settings: A. baumannii
[7] = tested on: P. aeruginosa ATCC 27853; type: cell-based, Pseudomonas aeruginosa
Text: (§2) The surviving cells from each antimicrobial concentration with no visible growth were enumerated by plating on tryptic soy agar (TSA). MBC was defined as the lowest concentration of the antimicrobial agent that led to at least a 99.9% reduction in the number of viable bacterial cells relative to the initial inoculum. There were three independent experiments with one replicate in each experiment.

[8] = tested on: E. coli ATCC 25922; type: cell-based, Escherichia coli
Text: as §2

[9] = tested on: Escherichia coli ATCC 25922; type: in vitro ADME
Experimental: To determine the stability of peptides in human serum, paenipeptin analogues were added into 100% human serum to a final concentration of 64 μg/ml. The mixtures were incubated at 37° C. and samples were withdrawn at 0, 6, 12 and 24 h. […] The residual antibacterial activity after incubation in human serum was compared to the non-treated control.

[10] = tested on: S. aureus ATCC 29213; type: cell-based, Staphylococcus aureus; settings: S. aureus; 95% serum vs TSB
Experimental: (§3) The impact of human serum on the antibacterial activity of selected paenipeptin analogues was determined using a procedure similar to that used for MIC determination as described above except that the microbiological medium was replaced by human serum (MP Biomedicals, Solon, Ohio). Paenipeptin analogues were two-fold diluted in 100% human serum and mixed with an equal volume of 90% serum containing approximately 1.5×10^5 CFU/mL of E. coli ATCC 25922 or S. aureus ATCC 29213. The final paenipeptin concentrations ranged from 0.5-64 μg/mL in 95% serum. The MIC in the presence of serum was then tested as described above.

[11] = tested on: P. aeruginosa ATCC 27853; assay: Time-kill assay; type: cell-based, Pseudomonas aeruginosa
Experimental: (§4) The surviving cells after antimicrobial treatment were enumerated at 0, 2, 4, 6 and 24 h by plating on TSA. There were three independent experiments with one replicate in each experiment

[12] = tested on: rabbit red blood cells; assay: Hemolytic activity; type: cell-based; settings: relative to Triton X-100
Outline: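 Washed defibrinated rabbit RBCs in PBS pH 7.2 incubated 30 min at 37 °C with paenipeptin analogues at 16–128 μg/mL final. Released hemoglobin read at 415 nm in the supernatant; % hemolysis relative to 0.1% Triton X-100.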

[13] = tested on: E. coli ATCC 25922; type: cell-based, Escherichia coli; settings: E. coli; 95% serum vs TSB
Experimental: as §3

[14] = tested on: nine carbapenem-resistant clinical isolates from the FDA-CDC Antibiotic Resistance Bank; settings: range over nine carbapenem-resistant clinical isolates
Experimental: The minimum inhibitory concentration (MIC) of paenipeptin analogues was determined using the broth microdilution method (Wirker, M. A. Methods for Dilution Antimicrobial Susceptibility Tests for Bacteria that Grow Aerobically: Approved Standard M07-A8; Clinical and Laboratory Standards Institute, Wayne, Pa., 2009).
as §6
There were at least three independent experiments with one replicate in each experiment.

[15] = tested on: A. baumannii ATCC 19606; type: cell-based, Acinetobacter baumannii
Text: as §2

[16] = tested on: S. aureus ATCC 29213; assay: Time-kill assay; type: cell-based, Staphylococcus aureus; settings: for reduction of viable cells: after 4 h
Experimental: as §4

[17] = tested on: Klebsiella pneumoniae ATCC 13883; type: cell-based; settings: K. pneumoniae
Experimental: as §5, §6

[18] = tested on: A. baumannii FDA-CDC AR 0083
[19] = tested on: A. baumannii FDA-CDC AR 0052
[20] = tested on: K. pneumoniae FDA-CDC AR 0097
[21] = tested on: K. pneumoniae FDA-CDC AR 0034
[22] = tested on: K. pneumoniae FDA-CDC AR 0044
[23] = tested on: K. pneumoniae FDA-CDC AR 0068
[24] = tested on: A. baumannii FDA-CDC AR 0063
[25] = tested on: 10 carbapenem-resistant strains; settings: all 10 tested strains
[26] = tested on: A. baumannii FDA-CDC AR 0070
[27] = tested on: A. baumannii FDA-CDC AR 0037
[28] = tested on: K. pneumoniae FDA-CDC AR 0080

## CC(C)C[C@H](NC(=O)[C@@H](Cc1ccccc1)NC(=O)[C@H](CCN)NC(=O)[C@H](Cc1ccccc1)NC(=O)[C@H](CCN)NC(=O)[C@@H](N)CC1CCCCC1)C(=O)N[C@@H](CCN)C(=O)N[C@H](CC(C)C)C(=O)N[C@@H](Cc1ccccc1)C(=O)N[C@@H](CO)C(N)=O [Analogue 17] (H-[Cha][Dab]F[Dab][dF]L[Dab][dL]FS-NH2)
[1]
  MIC: 0.5 to 1 µg/mL
[2]; 40 μg/mL (5×MIC)
  reduction of viable biofilm-associated cells: 3 log
[2]; 160 μg/mL (20×MIC)
  reduction of viable biofilm-associated cells: 5 log
[2]; 20 times MIC, six catheters
  catheters completely cleared of viable bacteria: 50%
[3]
  reduction of viable cells in established biofilm: 2.6 log
[4]; LTA 50 μg/ml
  impact of purified LTA on antibacterial activity: some inhibition
[4]; LTA 100 μg/mL
  impact of purified LTA on antibacterial activity: significantly reduced the antibacterial activity
[5]
  impact of purified LPS on bactericidal activity: neutralized the bactericidal activity
[6]
  improvement in antibacterial activity by comparison to compound 8: ≥ 4 fold
[7]
  MBC: 2 to 4 µg/mL
[8]
  MBC: 8 to 16 µg/mL
[9]; ATCC 25922, 0 h
  MIC after incubation in human serum at 37° C.: 4 to 8 µg/mL
[9]; ATCC 25922, 6 h
  MIC after incubation in human serum at 37° C.: 4 to 8 µg/mL
[9]; ATCC 25922, 12 h
  MIC after incubation in human serum at 37° C.: 4 to 8 µg/mL
[10]
  reduction in activity in the presence of human serum: 88-94%
[11]; 8 μg/ml, 2 h
  reduction of viable cells: 2.2 log
[11]; 8 μg/ml, 24 h
  regrowth at 24 h: significant bacterial regrowth was observed
[11]; 16 μg/ml, 24 h
  viable cells after 24 h exposure: no viable cells were detected
[11]; 16 μg/ml, within 2 h
  reduction of viable cells: 3.7 logs
[11]; 32 μg/ml, 24 h
  viable cells after 24 h exposure: no viable cells were detected
[11]; 32 μg/ml, within 2 h
  reduction of viable cells: 5.1 logs
[12]; 16 μg/mL
  Hemolysis: 0.60 ± 0.18%
[12]; 32 μg/mL
  Hemolysis: 2.46 ± 0.34%
[12]; 64 μg/mL
  Hemolysis: 11.02 ± 0.99%
[12]; 128 μg/mL
  Hemolysis: 34.6 ± 0.91%
[13]
  reduction in activity in the presence of human serum: 88-94%
[14]
  MIC: 0.5 to 2 µg/mL
[15]
  MBC: 4 to 8 µg/mL
[16]; 8 μg/ml
  regrowth: Regrowth
[16]; 16 μg/ml
  reduction of viable cells: 3.1 logs
[16]; 32 μg/ml
  reduction of viable cells: 5.4 logs
[17]
  improvement in antibacterial activity by comparison to compound 8: ≥ 4 fold

## CC(C)C[C@@H]1NC(=O)[C@@H](Cc2ccccc2)NC(=O)[C@H](CCN)NC(=O)[C@@H](NC(=O)[C@H](CCN)NC(=O)[C@@H](N)[C@@H](C)O)CCNC(=O)[C@H]([C@@H](C)O)NC(=O)[C@H](CCN)NC(=O)[C@H](CCN)NC1=O [polymyxin B nonapeptide, reference compound] (H-T[Dab][Dab][Dab][dF]L[Dab][Dab]T; lactam 3-C (inferred); N-terminus assumed)
[18]; A. baumannii AR 0083
  MIC of clarithromycin at the presence of PMBN or paenipeptin analogue at 4 μg/ml: 32 μg/ml
  MIC of rifampicin at the presence of PMBN or paenipeptin analogue at 4 μg/ml: 8 μg/ml
[18]; FDA-CDC AR 0083
  MIC alone: >32 µg/mL
[19]; A. baumannii AR 0052
  MIC of clarithromycin at the presence of PMBN or paenipeptin analogue at 4 μg/ml: 0.0313-0.0625 μg/ml
  MIC of rifampicin at the presence of PMBN or paenipeptin analogue at 4 μg/ml: 0.0625-0.125 μg/ml
[19]; FDA-CDC AR 0052
  MIC alone: >32 µg/mL
[20]; FDA-CDC AR 0097
  MIC alone: >32 µg/mL
[20]; K. pneumoniae AR 0097
  MIC of clarithromycin at the presence of PMBN or paenipeptin analogue at 4 μg/ml: 32 μg/ml
  MIC of rifampicin at the presence of PMBN or paenipeptin analogue at 4 μg/ml: 16 μg/ml
[21]; FDA-CDC AR 0034
  MIC alone: >32 µg/mL
[21]; K. pneumoniae AR 0034
  MIC of clarithromycin at the presence of PMBN or paenipeptin analogue at 4 μg/ml: >32 μg/ml
  MIC of rifampicin at the presence of PMBN or paenipeptin analogue at 4 μg/ml: 1 μg/ml
[22]; FDA-CDC AR 0044
  MIC alone: >32 µg/mL
[22]; K. pneumoniae AR 0044
  MIC of clarithromycin at the presence of PMBN or paenipeptin analogue at 4 μg/ml: 4 μg/ml
  MIC of rifampicin at the presence of PMBN or paenipeptin analogue at 4 μg/ml: 2 μg/ml
[23]; FDA-CDC AR 0068
  MIC alone: >32 µg/mL
[23]; K. pneumoniae AR 0068
  MIC of clarithromycin at the presence of PMBN or paenipeptin analogue at 4 μg/ml: >32 μg/ml
  MIC of rifampicin at the presence of PMBN or paenipeptin analogue at 4 μg/ml: 2-8 μg/ml
[24]; A. baumannii AR 0063
  MIC of clarithromycin at the presence of PMBN or paenipeptin analogue at 4 μg/ml: 0.5-1 μg/ml
  MIC of rifampicin at the presence of PMBN or paenipeptin analogue at 4 μg/ml: 0.125 μg/ml
[24]; FDA-CDC AR 0063
  MIC alone: >32 µg/mL
[25]
  MIC alone: > 32 µg/mL
[26]; A. baumannii AR 0070
  MIC of clarithromycin at the presence of PMBN or paenipeptin analogue at 4 μg/ml: 0.25-0.5 μg/ml
  MIC of rifampicin at the presence of PMBN or paenipeptin analogue at 4 μg/ml: 0.0625-0.125 μg/ml
[26]; FDA-CDC AR 0070
  MIC alone: >32 µg/mL
[27]; A. baumannii AR 0037
  MIC of clarithromycin at the presence of PMBN or paenipeptin analogue at 4 μg/ml: 0.125-0.25 μg/ml
  MIC of rifampicin at the presence of PMBN or paenipeptin analogue at 4 μg/ml: 0.25 μg/ml
[27]; FDA-CDC AR 0037
  MIC alone: >32 µg/mL
[28]; FDA-CDC AR 0080
  MIC alone: >32 µg/mL
[28]; K. pneumoniae AR 0080
  MIC of clarithromycin at the presence of PMBN or paenipeptin analogue at 4 μg/ml: 4 μg/ml
  MIC of rifampicin at the presence of PMBN or paenipeptin analogue at 4 μg/ml: >32 μg/ml

Source: patent US11364275B2, “Linear lipopeptide paenipeptins and methods of using the same” (priority 2017, dated 2022)
